pIC50: −log10 of the molar value.
Biological target: T1, Accessory gene regulator protein A (Staphylococcus aureus, UniProt P0A0I7)
T1 sequence (P0A0I7 whole entry): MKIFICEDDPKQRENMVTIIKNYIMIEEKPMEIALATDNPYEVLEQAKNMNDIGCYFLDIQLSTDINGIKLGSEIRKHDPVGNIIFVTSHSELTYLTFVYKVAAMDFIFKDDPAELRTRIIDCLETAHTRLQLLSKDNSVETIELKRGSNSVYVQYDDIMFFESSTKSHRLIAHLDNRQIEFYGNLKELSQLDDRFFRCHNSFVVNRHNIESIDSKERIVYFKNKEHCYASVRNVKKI
Assay: Inhibition of Staphylococcus aureus RN6390B Agr-mediated RNA3 promoter activation measured up to 6 hrs by Northern blot analysis

CCCCCCCCCC(=O)CC(=O)N[C@H]1CCOC1=O
pIC50: 5.22
